Reference: PubChem BioAssay AID1259407 (Chemical Carcinogenesis Research Information System (CCRIS), 2018)
The source made the active and inactive calls. How the calls were made is not given here.

Test system: CCRIS mutagenicity, Ames/micronucleus/aberration tests
Experiment: CCRIS mutagenicity studies
[1] = Test System: AMES SALMONELLA TYPHIMURIUM, Strain/Indicator: TA98, Metabolic Activation: NONE, Method: STANDARD PLATE
[2] = Test System: AMES SALMONELLA TYPHIMURIUM, Strain/Indicator: TA100, Metabolic Activation: NONE, Method: STANDARD PLATE
[3] = Test System: AMES SALMONELLA TYPHIMURIUM, Strain/Indicator: TA98, Metabolic Activation: NONE, Method: PREINCUBATION
[4] = Test System: AMES SALMONELLA TYPHIMURIUM, Strain/Indicator: TA100, Metabolic Activation: NONE, Method: PREINCUBATION

Measured: mutagenic call

CCCCCCC(O)CCCCCCCCCCC(=O)O (stereo not given)
inactive: Test System: AMES SALMONELLA TYPHIMURIUM, Strain/Indicator: TA97, Metabolic Activation: NONE, Method: STANDARD PLATE inactive; negative | Test System: AMES SALMONELLA TYPHIMURIUM, Strain/Indicator: TA97, Metabolic Activation: S-9, Method: STANDARD PLATE inactive; negative | [1] inactive; negative | [2] inactive; negative | Test System: AMES SALMONELLA TYPHIMURIUM, Strain/Indicator: TA100, Metabolic Activation: S-9, Method: STANDARD PLATE inactive; negative | Test System: AMES SALMONELLA TYPHIMURIUM, Strain/Indicator: TA102, Metabolic Activation: NONE, Method: STANDARD PLATE inactive; negative | Test System: AMES SALMONELLA TYPHIMURIUM, Strain/Indicator: TA102, Metabolic Activation: S-9, Method: STANDARD PLATE inactive; negative | Test System: E.COLI, Strain/Indicator: WP2 (PKM101), Metabolic Activation: NONE, Method: STANDARD PLATE inactive; negative | Test System: E.COLI, Strain/Indicator: WP2 (PKM101), Metabolic Activation: S-9, Method: STANDARD PLATE inactive; negative

CC(N)(CN=[N+]=[N-])C(=O)O (stereo not given)
active: Test System: AMES SALMONELLA TYPHIMURIUM, Strain/Indicator: TA1530, Metabolic Activation: NONE, Method: STANDARD PLATE active; positive

CCCCCCCCCCCCN
inactive: End Point: In vitro Chromosomal aberrations, Test System: CHO Cells, Metabolic Activation: None inactive; negative; cytotoxic at 12 and 18 ug/ml | End Point: In vitro Chromosomal aberrations, Test System: CHO Cells, Metabolic Activation: Rodent S-9 inactive; negative; cytotoxic at 12 and 18 ug/ml

CC[C@H]1O[C@@H]1c1ccccc1
inactive: Test System: AMES SALMONELLA TYPHIMURIUM, Strain/Indicator: TA98, Metabolic Activation: NONE, Method: PREINCUBATION (PHOSPHATE-BUFFERED KCL OR SOLUTE-FREE WATER MEDIA) inactive; negative | Test System: AMES SALMONELLA TYPHIMURIUM, Strain/Indicator: TA100, Metabolic Activation: NONE, Method: PREINCUBATION (PHOSPHATE-BUFFERED KCL OR SOLUTE-FREE WATER MEDIA) inactive; negative | Test System: AMES SALMONELLA TYPHIMURIUM, Strain/Indicator: TA104, Metabolic Activation: NONE, Method: PREINCUBATION (PHOSPHATE-BUFFERED KCL OR SOLUTE-FREE WATER MEDIA) inactive; negative

NC(=O)CCC(=O)Nc1ccc(Cl)c(Cl)c1
inactive: [1] inactive; negative | Test System: AMES SALMONELLA TYPHIMURIUM, Strain/Indicator: TA98, Metabolic Activation: RAT, LIVER, S-9, AROCLOR 1254, Method: STANDARD PLATE inactive; negative | [2] inactive; negative | Test System: AMES SALMONELLA TYPHIMURIUM, Strain/Indicator: TA100, Metabolic Activation: RAT, LIVER, S-9, AROCLOR 1254, Method: STANDARD PLATE inactive; negative

COC(=O)C(c1ccccc1)C1CCCCN1 (stereo not given)
active: End Point: IN VITRO CHROMOSOMAL ABERRATIONS, Test System: CHINESE HAMSTER OVARY CELLS, Metabolic Activation: RAT, LIVER, S-9, AROCLOR 1254 active; positive
inactive: End Point: IN VITRO CHROMOSOMAL ABERRATIONS, Test System: CHINESE HAMSTER OVARY CELLS, Metabolic Activation: NONE inactive; negative | End Point: In vivo chromosomal aberrations, Test System: Peripheral blood lymphocytes, Species: Monkey, Strain/Sex: Rhesus/Male, Route: Oral inactive; negative | End Point: In vivo micronucleus, Test System: Peripheral blood lymphocytes, Species: Monkey, Strain/Sex: Rhesus/Male, Route: Oral inactive; negative | Test System: AMES SALMONELLA TYPHIMURIUM, Strain/Indicator: TA97, Metabolic Activation: HAMSTER, LIVER, S-9, AROCLOR 1254 (10 OR 30%), Method: PREINCUBATION inactive; negative | Test System: AMES SALMONELLA TYPHIMURIUM, Strain/Indicator: TA97, Metabolic Activation: NONE, Method: PREINCUBATION inactive; negative | Test System: AMES SALMONELLA TYPHIMURIUM, Strain/Indicator: TA97, Metabolic Activation: RAT, LIVER, S-9, AROCLOR 1254 (10 OR 30%), Method: PREINCUBATION inactive; negative | Test System: AMES SALMONELLA TYPHIMURIUM, Strain/Indicator: TA98, Metabolic Activation: HAMSTER, LIVER, S-9, AROCLOR 1254 (10%), Method: PREINCUBATION inactive; negative | Test System: AMES SALMONELLA TYPHIMURIUM, Strain/Indicator: TA98, Metabolic Activation: HAMSTER, LIVER, S-9, AROCLOR 1254 (30%), Method: PREINCUBATION inactive; negative | [3] inactive; negative | Test System: AMES SALMONELLA TYPHIMURIUM, Strain/Indicator: TA98, Metabolic Activation: RAT, LIVER, S-9, AROCLOR 1254 (10%), Method: PREINCUBATION inactive; negative | Test System: AMES SALMONELLA TYPHIMURIUM, Strain/Indicator: TA98, Metabolic Activation: RAT, LIVER, S-9, AROCLOR 1254 (30%), Method: PREINCUBATION inactive; negative | Test System: AMES SALMONELLA TYPHIMURIUM, Strain/Indicator: TA100, Metabolic Activation: HAMSTER, LIVER, S-9, AROCLOR 1254 (10%), Method: PREINCUBATION inactive; negative | Test System: AMES SALMONELLA TYPHIMURIUM, Strain/Indicator: TA100, Metabolic Activation: HAMSTER, LIVER, S-9, AROCLOR 1254 (30%), Method: PREINCUBATION inactive; negative | [4] inactive; negative | Test System: AMES SALMONELLA TYPHIMURIUM, Strain/Indicator: TA100, Metabolic Activation: RAT, LIVER, S-9, AROCLOR 1254 (10%), Method: PREINCUBATION inactive; negative | Test System: AMES SALMONELLA TYPHIMURIUM, Strain/Indicator: TA100, Metabolic Activation: RAT, LIVER, S-9, AROCLOR 1254 (30%), Method: PREINCUBATION inactive; negative | Test System: AMES SALMONELLA TYPHIMURIUM, Strain/Indicator: TA1535, Metabolic Activation: HAMSTER, LIVER, S-9, AROCLOR 1254 (10%), Method: PREINCUBATION inactive; negative | Test System: AMES SALMONELLA TYPHIMURIUM, Strain/Indicator: TA1535, Metabolic Activation: HAMSTER, LIVER, S-9, AROCLOR 1254 (30%), Method: PREINCUBATION inactive; negative | Test System: AMES SALMONELLA TYPHIMURIUM, Strain/Indicator: TA1535, Metabolic Activation: NONE, Method: PREINCUBATION inactive; negative | Test System: AMES SALMONELLA TYPHIMURIUM, Strain/Indicator: TA1535, Metabolic Activation: RAT, LIVER, S-9, AROCLOR 1254 (10%), Method: PREINCUBATION inactive; negative | Test System: AMES SALMONELLA TYPHIMURIUM, Strain/Indicator: TA1535, Metabolic Activation: RAT, LIVER, S-9, AROCLOR 1254 (30%), Method: PREINCUBATION inactive; negative | Test System: AMES SALMONELLA TYPHIMURIUM, Strain/Indicator: TA1537, Metabolic Activation: HAMSTER, LIVER, S-9, AROCLOR 1254 (10%), Method: PREINCUBATION inactive; negative | Test System: AMES SALMONELLA TYPHIMURIUM, Strain/Indicator: TA1537, Metabolic Activation: NONE, Method: PREINCUBATION inactive; negative | Test System: AMES SALMONELLA TYPHIMURIUM, Strain/Indicator: TA1537, Metabolic Activation: RAT, LIVER, S-9, AROCLOR 1254 (10%), Method: PREINCUBATION inactive; negative | Test System: Rhesus monkey peripheral blood lymphocytes, Strain/Indicator: HPRT/6-Thioguanine, Metabolic Activation: None, Method: Determined at 3-mo intervals from test subjects exposed to test chemical for 20 mo inactive; negative

O=C(O)c1cc([N+](=O)[O-])cc([N+](=O)[O-])c1
active: [3] active; positive | Test System: AMES SALMONELLA TYPHIMURIUM, Strain/Indicator: TA98, Metabolic Activation: RAT, LIVER, S-9, KANECHLOR 500, Method: PREINCUBATION active; positive | [4] active; positive | Test System: AMES SALMONELLA TYPHIMURIUM, Strain/Indicator: TA100, Metabolic Activation: RAT, LIVER, S-9, KANECHLOR 500, Method: PREINCUBATION active; positive

CS(=O)(=O)Nc1ccc(Nc2c3ccccc3nc3cc(N=[N+]=[N-])ccc23)cc1
active: Test System: AMES SALMONELLA TYPHIMURIUM, Strain/Indicator: TA1537, Metabolic Activation: NONE, Method: STANDARD PLATE active; positive
